Test results from patent publication US20190144401A1, “IMINOSYDNONE DERIVATIVES FOR CONJUGATION AND RELEASE OF COMPOUNDS OF INTEREST” (UNIVERSITE DE STRASBOURG, priority 2014, published 2019).

Experiments:
[1] = Kinetics of the coupling reaction of iminosydnones with TMTH (HPLC monitoring); type: physicochemical; conditions: 100 μM iminosydnone, 150 μM TMTH, PBS 0.1M (pH 7.4) containing 10% DMSO
Method: (§1) The kinetics of the coupling reaction of different iminosydnones with two cyclic alkynes was studied, according to the following scheme.
(§2) Reactions of iminosydnones with BCN (Bicyclononyne) or TMTH were carried out in PBS/DMSO (9:1) mixtures at 100 μM concentration of sydnones and 150 μM concentration of BCN or TMTH using the following procedure:
(§3) To 900 μL of phosphate buffered saline (PBS, 100 mM) was added 87.5 μL of DMSO, 10 μL of the solution of benzamide (internal standard, 100 mM in DMSO), 1 μL of the solution of iminosydnone (100 mM in DMSO) and 1.5 μL of the solution of BCN or TMTH (100 mM in DMSO). The reaction mixture was injected in HPLC every 30 min and the conversion was followed by measuring the normalized sydnone peak area.
(§4) Second order reaction rate was determined by plotting ln([A]/[B])/([A]−[B]) versus time and analyzing by linear regression (Equation). Second order rate constant corresponds to the determined slope.
(§5) Equation. [A]—concentration of iminosydnones (M); [B]—concentration of BCN (M); t—reaction time (sec); k—reaction rate (M^−1·sec^−1)

[2] = Kinetics of the coupling reaction of iminosydnones with BCN (HPLC monitoring); type: physicochemical; conditions: 100 μM iminosydnone, 150 μM BCN, PBS 0.1M (pH 7.4) containing 10% DMSO
Method: as §1, §2, §3, §4, §5

## Cc1ccc(NC(=O)[N-]c2c[n+](-c3ccc(C(=O)O)cc3)no2)cc1 [Im7]
[1]
  K (TMTH): 61.2 M⁻¹ s⁻¹
[2]
  K (BCN): 0.108 M⁻¹ s⁻¹

## CCOC(=O)c1ccc(NC(=O)[N-]c2c[n+](-c3ccc(O)cc3)no2)cc1 [Im8]
[1]
  K (TMTH): 2.5 M⁻¹ s⁻¹
[2]
  K (BCN): 0.008 M⁻¹ s⁻¹

## N#CC#Cc1ccc(NC(=O)[N-]c2c[n+](-c3ccc(C(=O)O)cc3)no2)cc1 [Im14, (3-(4-carboxyphenyl)-1,2,3-oxadiazol-3-ium-5-yl)((4-(cyanoethynyl)phenyl)carbamoyl)amide]
[2]
  K (BCN): 0.132 M⁻¹ s⁻¹

## Cc1ccc(NC(=O)[N-]c2c[n+](-c3ccccc3)no2)cc1 [Im5]
[1]
  K (TMTH): 43.1 M⁻¹ s⁻¹
[2]
  K (BCN): 0.069 M⁻¹ s⁻¹

## [NH-]c1c[n+](-c2ccccc2)no1 [Im1]
[2]
  K (BCN): no reaction

## Cc1ccc(-[n+]2noc([N-]C(=O)OCc3ccccc3)c2Br)cc1 [Im12]
[2]
  K (BCN): 0.150 M⁻¹ s⁻¹

## Cc1ccc(-[n+]2noc([N-]C(=O)NCc3ccccc3)c2Br)cc1 [Im10]
[2]
  K (BCN): 0.060 M⁻¹ s⁻¹

## Cc1ccc(-[n+]2cc([N-]C(=O)CCc3ccccc3)on2)cc1 [Im4]
[2]
  K (BCN): 0.034 M⁻¹ s⁻¹

## Cc1ccc(NC(=O)[N-]c2c[n+](-c3ccc(O)cc3)no2)cc1 [Im6]
[1]
  K (TMTH): 4.1 M⁻¹ s⁻¹
[2]
  K (BCN): 0.008 M⁻¹ s⁻¹

## Cc1ccc(-[n+]2cc([N-]C(=O)OCc3ccccc3)on2)cc1 [Im11]
[2]
  K (BCN): 0.026 M⁻¹ s⁻¹

## CC(=O)[N-]c1c[n+](-c2ccccc2)no1 [Im2]
[1]
  K (TMTH): 2.2 M⁻¹ s⁻¹
[2]
  K (BCN): 0.002 M⁻¹ s⁻¹

## Cc1ccc(-[n+]2cc([N-]C(=O)NCc3ccccc3)on2)cc1 [Im9]
[2]
  K (BCN): 0.004 M⁻¹ s⁻¹

## Cc1ccc(-[n+]2cc([N-]C(=O)Cc3ccccc3)on2)cc1 [Im3]
[2]
  K (BCN): 0.004 M⁻¹ s⁻¹
